This passage reports Ki results from patent publication US11401270B2, “Alcoxyamino derivatives for treating pain and pain related conditions” (ESTEVE PHARMACEUTICALS, S.A., priority 2017, dated 2022).

SMILES strings stand for the structures.

For the first assay, the target named is Human α2δ-1 subunit of Cav2.2 calcium channel (Homo sapiens (Human), UniProt P54289). The experiment in a line: Binding Assay to Human α2δ-1 Subunit of Cav2.2 Calcium Channel. To be noted: Table 1; human α2δ-1 enriched membranes, 15 nM [3H]-Gabapentin; read-out: Ki(nM) alpha2delta Hum. The procedure: Binding Assay to Human α2δ-1 Subunit of Cav2.2 Calcium Channel.
Chain of Human α2δ-1 subunit of Cav2.2 calcium channel (P54289 25-1103): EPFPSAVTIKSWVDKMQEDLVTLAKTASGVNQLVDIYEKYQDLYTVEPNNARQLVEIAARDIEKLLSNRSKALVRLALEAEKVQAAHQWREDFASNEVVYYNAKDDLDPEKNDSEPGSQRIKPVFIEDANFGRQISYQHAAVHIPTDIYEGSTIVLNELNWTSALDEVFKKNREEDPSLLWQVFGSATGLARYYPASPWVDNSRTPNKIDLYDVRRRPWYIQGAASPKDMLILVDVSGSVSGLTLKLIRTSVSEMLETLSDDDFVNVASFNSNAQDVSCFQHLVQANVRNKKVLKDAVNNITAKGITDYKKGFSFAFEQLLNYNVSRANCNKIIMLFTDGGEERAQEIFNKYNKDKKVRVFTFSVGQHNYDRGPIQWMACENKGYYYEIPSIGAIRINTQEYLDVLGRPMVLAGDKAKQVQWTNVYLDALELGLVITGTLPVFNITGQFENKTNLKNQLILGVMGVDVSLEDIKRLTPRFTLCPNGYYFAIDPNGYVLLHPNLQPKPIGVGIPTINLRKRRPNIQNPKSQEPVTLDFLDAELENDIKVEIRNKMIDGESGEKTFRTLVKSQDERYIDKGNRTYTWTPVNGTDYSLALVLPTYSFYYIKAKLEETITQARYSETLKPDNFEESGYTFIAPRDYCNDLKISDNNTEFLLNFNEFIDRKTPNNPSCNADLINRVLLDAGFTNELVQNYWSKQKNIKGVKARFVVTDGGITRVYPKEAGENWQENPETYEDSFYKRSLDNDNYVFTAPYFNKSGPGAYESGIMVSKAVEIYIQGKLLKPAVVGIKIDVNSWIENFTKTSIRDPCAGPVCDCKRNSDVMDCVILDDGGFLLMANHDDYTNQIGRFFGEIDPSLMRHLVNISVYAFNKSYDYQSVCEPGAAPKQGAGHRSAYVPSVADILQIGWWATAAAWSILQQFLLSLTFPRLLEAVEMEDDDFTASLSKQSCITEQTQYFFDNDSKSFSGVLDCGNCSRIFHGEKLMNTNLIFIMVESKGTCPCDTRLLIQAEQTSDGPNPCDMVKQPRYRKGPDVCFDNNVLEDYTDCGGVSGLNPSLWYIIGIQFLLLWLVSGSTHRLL
NSB (non specific binding) was measured by adding 10 μM pregabalin. The binding of the test compound was measured in five different concentrations. After 60 min incubation at 27° C., binding reaction was terminated by filtering through Multiscreen GF/C (Millipore) presoaked in 0.5% polyethyleneimine in Vacuum Manifold Station, followed by 3 washes with ice-cold filtration buffer containing 50 mM Tris-HCl, pH 7.4.
Filter plates were dried at 60° C. for 1 hour and 30 μl of scintillation cocktail were added to each well before radioactivity reading.
As for `CCNCCC(OCc1cccc(N2CCN(C)c3ccccc3C2=O)c1)c1ccccc1` (stereo not shown) [Example 43, 4-(3-((3-(Ethylamino)-1-phenylpropoxy)methyl)phenyl)-1-methyl-1,2,3,4-tetrahydro-5H-benzo[e][1,4]diazepin-5-one], the Ki was 100 to 500 nM. As for `CNCCC(Oc1cccc(N2CCN(C)c3ccccc3C2)c1)c1cccs1` (stereo not shown) [Example 9, N-methyl-3-(3-(1-methyl-1,2,3,5-tetrahydro-4H-benzo[e][1,4]diazepin-4-yl)phenoxy)-3-(thiophen-2-yl)propan-1-amine], the Ki is greater than 3000 nM.

As for `CNCCC(OCc1cccc(N2CCN(C)c3nc(C)ccc3C2=O)c1)c1ccccc1` (stereo not shown) [Example 48, 1,8-Dimethyl-4-(3-((3-(methylamino)-1-phenylpropoxy)methyl)phenyl)-1,2,3,4-tetrahydro-5H-pyrido[2,3-e][1,4]diazepin-5-one], the Ki lay within 500 to 3000 nM. Consider `CCNC1CCCN(c2cccc(O[C@@H](CCNC)c3cccs3)c2)C(=O)C1` (single isomer, unassigned) [Example 118b], for which the Ki was in the range of 500 to 3000 nM. The same measure, in the same setting: the figure for `CNCCC(Oc1ccc(CN2CCN(C)c3ccccc3C2=O)cc1)c1ccccc1` (stereo not shown) [Example 112, 1-Methyl-4-(4-(3-(methylamino)-1-phenylpropoxy)benzyl)-1,2,3,4-tetrahydro-5H-benzo[e][1,4]diazepin-5-one] is greater than 3000 nM; for `CNCC[C@@H](Oc1ccc(CN2CCN(C)c3ncccc3C2=O)cc1)c1cccc(F)c1` [Example 150, (R)-(4-(1-(3-fluorophenyl)-3-(methylamino)propoxy)benzyl)-1-methyl-1,2,3,4-tetrahydro-5H-pyrido[2,3-e][1,4]diazepin-5-one] it is 500 to 3000 nM. For `CNCCC(Oc1cccc(C(=O)N2CCCN(C)CC2)c1)c1cccs1` (stereo not shown) [Example 2, (4-Methyl-1,4-diazepan-1-yl)(3-(3-(methylamino)-1-(thiophen-2-yl)propoxy)phenyl)methanone], the Ki was 500 to 3000 nM. For the compound `CNCC[C@H](Oc1ccc(CN2CCN(C)c3ncccc3C2=O)c(C(F)(F)F)c1)c1cccs1` [Example 127, (S)-1-methyl-4-(4-(3-(methylamino)-1-(thiophen-2-yl)propoxy)-2-(trifluoromethyl)benzyl)-1,2,3,4-tetrahydro-5H-pyrido[2,3-e][1,4]diazepin-5-one], the Ki is less than 100 nM. As for `CNCC[C@@H](OCc1cccc(N2C[C@@H]3CCCN3c3ccccc3C2=O)c1)c1ccccc1` [Example 31, (S)-5-(3-(((R)-3-(methylamino)-1-phenylpropoxy)methyl)phenyl)-1.2,3,3a,4,5-hexahydro-6H-benzo[f]pyrrolo[1,2-a][1,4]diazepin-6-one], the Ki is 500 to 3000 nM. As for `CNCCC(OCc1cccc(N2CCN(C)c3ccccc3C2=O)c1)c1ccccc1F` (stereo not shown) [Example 39, 4-(3-((1-(2-Fluorophenyl)-3-(methylamino)propoxy)methyl)phenyl)-1-methyl-1,2,3,4-tetrahydro-5H-benzo[e][1,4]diazepin-5-one], the Ki lay in the range of 100 to 500 nM.

For the compound `CNCCC(OCc1cccc(N2CCN(C)c3ccccc3C2=O)c1)c1ccccc1` (stereo not shown) [Example 38, 1-Methyl-4-(3-((3-(methylamino)-1-phenylpropoxy)methyl)phenyl)-1,2,3,4-tetrahydro-5H-benzo[e][1,4]diazepin-5-one], the Ki lay within 500 to 3000 nM. Turning to `CNCC[C@H](Oc1ccc(CN2CCCn3cccc3C2=O)cc1)c1cccs1` [Example 105, (S)-2-(4-(3-(methylamino)-1-(thiophen-2-yl)propoxy)benzyl)-2,3,4,5-tetrahydro-1H-pyrrolo[1,2-a][1,4]diazepin-1-one], the Ki was 500 to 3000 nM. Consider `CNCCC(Oc1cccc(N2CCCN(C)CC2)c1)c1ccccc1` (stereo not shown) [Example 5, N-methyl-3-(3-(4-methyl-1,4-diazepan-1-yl)phenoxy)-3-phenylpropan-1-amine], for which the Ki lay in the range of 500 to 3000 nM. For `CCNCC(=O)N1CCC(=O)N(c2cccc(OC(CCNC)c3cccs3)c2)CC1` (stereo not shown) [Example 68, 1-(Ethylglycyl)-4-(3-(3-(methylamino)-1-(thiophen-2-yl)propoxy)phenyl)-1,4-diazepan-5-one], the Ki is 500 to 3000 nM. With `CNCCC(Oc1cccc(N2CCN(C)c3cnccc3C2=O)c1)c1cccs1` (stereo not shown) [Example 73, 1-Methyl-4-(3-(3-(methylamino)-1-(thiophen-2-yl)propoxy)phenyl)-1.2,3,4-tetrahydro-5H-pyrido[3,4-e][1,4]diazepin-5-one], the Ki lay in the range of 100 to 500 nM.

Regarding `CNCCC(OCc1cccc(N2CCCN(C)CC2=O)c1)c1ccccc1` (stereo not shown) [Example 36, 4-Methyl-1-(3-((3-(methylamino)-1-phenylpropoxy)methyl)phenyl)-1,4-diazepan-2-one], the Ki lay within 500 to 3000 nM. On the same count and under the same terms, as for `CCN[C@H]1CCCCN(c2cccc(O[C@@H](CCNC)c3cccs3)c2)C1=O` [Example 19, (S)-3-(ethylamino)-1-(3-((S)-3-(methylamino)-1-(thiophen-2-yl)propoxy)phenyl)azepan-2-one], the figure is 500 to 3000 nM; as for `CNCCC(Oc1ccc(CN2CCN(C)CCC2=O)c(F)c1)c1cccs1` (stereo not shown) [Example 122, 4-(2-Fluoro-4-(3-(methylamino)-1-(thiophen-2-yl)propoxy)benzyl)-1-methyl-1,4-diazepan-5-one], 100 to 500 nM; as for `CNCC[C@H](OCc1cccc(N2CCCN(C)CC2)c1)c1ccccc1` [Example 12, (S)-N-methyl-3-((3-(4-methyl-1,4-diazepan-1-yl)benzyl)oxy)-3-phenylpropan-1-amine], greater than 3000 nM. With `CNCCC(OCc1ccc(N2CCN(C)c3ccccc3C2=O)cc1)c1ccccc1` (stereo not shown) [Example 46, 1-Methyl-4-(4-((3-(methylamino)-1-phenylpropoxy)methyl)phenyl)-1,2,3,4-tetrahydro-5H-benzo[e][1,4]diazepin-5-one], the Ki is greater than 3000 nM. On to `CNCCC(OCc1cccc(N2CCN(C)c3cnccc3C2=O)c1)c1ccccc1` (stereo not shown) [Example 28, 1-Methyl-4-(3-((3-(methylamino)-1-phenylpropoxy)methyl)phenyl)-1,2,3,4-tetrahydro-5H-pyrido[3,4-e][1,4]diazepin-5-one], for which the Ki fell in the range of 500 to 3000 nM. Regarding `CNCCC(Oc1ccc(CN2CCN(C)CCC2=O)cc1)c1cccs1` (stereo not shown) [Example 101, 1-Methyl-4-(4-(3-(methylamino)-1-(thiophen-2-yl)propoxy)benzyl)-1,4-diazepan-5-one], the Ki lay within 100 to 500 nM.

As to `CNCC[C@H](OCc1cccc(N2CCN(C)c3ccccc3C2=O)c1)c1cccc(F)c1` [Example 42, (S)-4-(3-((1-(3-fluorophenyl)-3-(methylamino)propoxy)methyl)phenyl)methyl-1 2,3,4-tetrahydro-5H-benzo[e][1,4]diazepin-5-one], the Ki was in the range of 500 to 3000 nM. With `CNCC[C@H](Oc1ccc(CN2CCN(C)c3nc(N(C)C)ccc3C2=O)cc1)c1cccs1` [Example 95, (S)-8-(dimethylamino)-1-methyl-4-(4-(3-(methylamino)-1-(thiophen-2-yl)propoxy)benzyl)-1,2,3.4-tetrahydro-5H-pyrido[2,3-e][1,4]diazepin-5-one], the Ki fell in the range of 500 to 3000 nM. `CNCC[C@H](Oc1ccc(CN2CCN(C)c3ncccc3C2=O)c(C(F)(F)F)c1)c1ccccc1` [Example 130, (S)-1-methyl-4-(4-(3-(methylamino)-1-phenylpropoxy)-2-(trifluoromethyl)benzyl)-1,2,3,4-tetrahydro-5H-pyrido[2,3-e][1,4]diazepin-5-one]: the Ki is less than 100 nM.

Turning to `CNCCC(Oc1cccc(N2CCNCCC2=O)c1)c1cccs1` (stereo not shown) [Example 59, 4-(3-(3-(Methylamino)-1-(thiophen-2-yl)propoxy)phenyl)-1,4-diazepan-5-one], the Ki was in the range of 500 to 3000 nM. For `CNCC[C@@H](OCc1cccc(N2CCN(C)c3ccccc3C2=O)c1)c1cccc(F)c1` [Example 41, (R)-4-(3-((1-(3-fluorophenyl)-3-(methylamino)propoxy)methyl)phenyl)-1-methyl-1,2,3,4-tetrahydro-5H-benzo[e][1,4]diazepin-5-one], the Ki was greater than 3000 nM. In the case of `CNCCC(Oc1cccc(N2CCN(C)c3ccccc3C2=O)c1)c1cccs1` (stereo not shown) [Example 53, 1-Methyl-4-(3-(3-(methylamino)-1-(thiophen-2-yl)propoxy)phenyl)-1,2,3,4-tetrahydro-5H-benzo[e][1,4]diazepin-5-one], the Ki fell in the range of 500 to 3000 nM. With `CNCC[C@@H](Oc1ccc(CN2CCN(C)c3ncccc3C2=O)c(F)c1)c1cccc(F)c1` [Example 135, (R)-4-(2-fluoro-4-(1-(3-fiuorophenyl)-3-(methylamino)propoxy)benzyl)-1-methyl-1,2,3,4-tetrahydro-5H-pyrido[2,3-e][1,4]diazepin-5-one], the Ki lay in the range of 500 to 3000 nM. Regarding `CCNC[C@@H]1CN(C)CCN(c2cccc(O[C@@H](CCNC)c3ccccc3)c2)C1=O` [Example 25, (R)-6-((ethylamino)methyl)-1-methyl-4-(3-((S)-3-(methylamino)-1-phenylpropoxy)phenyl)-1,4-diazepan-5-one], the Ki is greater than 3000 nM. Turning to `CCNc1ccc2c(n1)N(C)CCN(Cc1ccc(O[C@H](CCNC)c3cccc(F)c3)cc1F)C2=O` [Example 147, (R)-8-(ethylamino)-4-(2-fluoro-4-(1-(3-fluorophenyl)-3-(methylamino)propoxy)benzyl)-1-methyl-1,2,3,4-tetrahydro-5H-pyrido[2,3-e][1,4]diazepin-5-one], the Ki was greater than 3000 nM. On to `CNCC(OCc1ccc(CN2CCN(C)c3ccccc3C2=O)cc1)c1ccccc1` (stereo not shown) [Example 109, 1-Methyl-4-(4-((2-(methylamino)-1-phenylethoxy)methyl)benzyl)-1,2,3,4-tetrahydro-5H-benzo[e][1,4]diazepin-5-one], for which the Ki is greater than 3000 nM.

Staying with this assay, now noted: Table 2, dual compounds; human α2δ-1 enriched membranes, 15 nM [3H]-Gabapentin; read-out: Ki(nM) alpha2delta Hum.
As for `CNCC[C@@H](Oc1ccc(CN2CCN(C)c3ncccc3C2=O)cc1)c1cccc(F)c1` [Example 150, (R)-(4-(1-(3-fluorophenyl)-3-(methylamino)propoxy)benzyl)-1-methyl-1,2,3,4-tetrahydro-5H-pyrido[2,3-e][1,4]diazepin-5-one], the Ki was in the range of 500 to 3000 nM.

Turning to `CNCC[C@H](Oc1ccc(CN2CCCn3cccc3C2=O)cc1)c1cccs1` [Example 105, (S)-2-(4-(3-(methylamino)-1-(thiophen-2-yl)propoxy)benzyl)-2,3,4,5-tetrahydro-1H-pyrrolo[1,2-a][1,4]diazepin-1-one], the Ki was in the range of 500 to 3000 nM.
